# Measured values: patent publication US8309726B2, “Substituted piperazine compounds of formula 8” (Council of Scientific & Industrial Research, priority 2007, dated 2012)
# Legend:
# calf thymus (CT) DNA = experiment: Thermal denaturation studies with duplex-form calf thymus DNA; type: binding; details: for ΔTm (° C.) after incubation at 37° C. for 0 h / ΔTm (° C.) after incubation at 37° C. for 18 h / ΔTm (° C.) after incubation at 37° C. for 36 h: [ANCD]/[DNA] molar ratio 1:5, CT-DNA 100 μM, ligand 20 μM, sodium phosphate buffer pH 7.00; for ΔTm (° C.) after incubation at 37° C. for 0 h: 0 h at 37° C.; for ΔTm (° C.) after incubation at 37° C. for 18 h: 18 h at 37° C.; for ΔTm (° C.) after incubation at 37° C. for 36 h: 36 h at 37° C.; for Course of ΔTm over incubation at 0 hr, 18 hr and 36 hr: incubation at 37° C., [ANCD]/[DNA] 1:5
# Procedure: Compounds were subjected to thermal denaturation studies with duplex-form calf thymus DNA (CT-DNA) using an adaptation of a reported procedure. Working solutions in aqueous buffer (10 mM NaH2PO4/Na2HPO4, 1 mM Na2EDTA, pH 7.00+/−0.01) containing CT-DNA (100 μM in phosphate) and the PBD (20 μM) were prepared by addition of concentrated ANCD solutions in DMSO to obtain a fixed [ANCD]/[DNA] molar ratio of 1:5. The DNA-ANCD solutions were incubated at 37° C. for 0, 18, and 36 h prior to analysis. Samples were monitored at 260 nm using a Beckman DU-7400 spectrophotometer fitted with high performance temperature controller, and heating was applied at 1° C. min^−1 in the 40-90° C. range. DNA helix coil transition temperatures (Tm) were obtained from the maxima in the (dA260)/dT derivative plots. Results are given as the mean+/−standard deviation from three determinations and are corrected for the effects of DMSO co-solvent using a linear correction term. Drug-induced alterations in DNA melting behaviour are given by: ΔTm=Tm (DNA+ANCD)−Tm (DNA alone), where the Tm value for the ANCD-free CT-DNA is 69.0+/−0.01.
# [1] = tested on: Ovarian cancer cell lines; experiment: In vitro cytotoxicity, ovarian panel; type: cell-based; details: Homo sapiens, average of six to nine different cancer cell lines, 48 h, SRB, read-out: Log GI50 (concentration in mol/L causing 50% growth inhibition) (converted)
# Procedure: (§1) In vitro evaluation of cytotoxic activity: Compounds were evaluated for in vitro anticancer activity against sixty human tumour cells derived from nine cancer types (colon, prostate, oral, lung, cervix and breast cancer) as shown in (Table 1, 2 and 3) 8b, 8c, 8d, and 8e, were evaluated for in vitro anticancer activity against sixty human tumour cells derived from nine cancer types (leukemia, non-small-cell lung, colon, CNS, melanoma, ovarian, prostate, and breast cancer) as shown in (Table 2 and 3). For the compound, dose response curves for each cell line were measured at a minimum of five concentrations at 10 fold dilutions. A protocol of 48 h continuous drug exposure was used and a sulforhodamine B (SRB) protein assay was used to estimate cell viability or growth. The concentration causing 50% cell growth inhibition (GI50), total cell growth inhibition (TGI 0% growth) and 50% cell death (LC50, −50% growth) compared with the control was calculated. The mean graph midpoint values of log10 TGI and log10 LC50 as well as log10 GI50 for 8a, 8b, 8c, 8d, and 8e, are listed in (Table 2 and 3).
# (§2) Each cancer type represents the average of six to nine different cancer cell lines. The compounds 8a, 8b, 8c, 8d, 8e and 8f were evaluated for in vitro anticancer activity against sixty human tumour cells derived from nine cancer types (leukemia, colon, prostate, renal melanoma CNS, lung, cervix and breast cancer) as shown in Table 3. Compounds 8b, 8c, 8d and 8e show promising cytotoxicity against some cancer cell lines (Table 2). Compounds 8b, 8c, 8d and 8e have been evaluated for their in vitro cytotoxicity in selected human cancer cell lines of colon (Colo205), lung (Hop-62), cervix (SiHa), prostate (DU145, PC3), oral (DWD, HT1080), and breast (MCF7, Zr-75-1) origin. A protocol of 48 h continuous drug exposure has been used and an […] has been used to estimate cell viability or growth. The results are expressed as percent of cell growth determined relative to that of untreated control cells. […] In the breast cancer panel, the growth of BT-549, MCF-7 cell lines are 10.3, and 17.6. In the prostate cancer panel, the growth of DU-145, PC-3 cell lines are 11.3, and 19.2. The GI50 values of compound In the CNS cancer panel, the growth of SF-539, SNB-75 cell lines are […]. […] In vitro cytotoxicity of compounds 8a, and 8b in selected cancer cell lines has been illustrated in Table 3. The average GI50 values for each cancer panel of compounds 8b, 8c, 8d and 8e have been illustrated in above Table 2 and 3
# CNS cancer cell lines = experiment: In vitro cytotoxicity, CNS panel; type: cell-based; details: Homo sapiens, average of six to nine different cancer cell lines, 48 h, SRB, read-out: Log GI50 (concentration in mol/L causing 50% growth inhibition) (converted)
# Procedure: as §1, §2
# Renal cancer cell lines = experiment: In vitro cytotoxicity, renal panel; type: cell-based; details: Homo sapiens, average of six to nine different cancer cell lines, 48 h, SRB, read-out: Log GI50 (concentration in mol/L causing 50% growth inhibition) (converted)
# Procedure: as §1, §2
# [2] = tested on: Leukemia cancer cell lines; experiment: In vitro cytotoxicity, leukemia panel; type: cell-based; details: Homo sapiens, average of six to nine different cancer cell lines, 48 h, SRB, read-out: Log GI50 (concentration in mol/L causing 50% growth inhibition) (converted)
# Procedure: as §1, §2
# Colon cancer cell lines = experiment: In vitro cytotoxicity, colon panel; type: cell-based; details: Homo sapiens, average of six to nine different cancer cell lines, 48 h, SRB, read-out: Log GI50 (concentration in mol/L causing 50% growth inhibition) (converted)
# Procedure: as §1, §2
# [3] = tested on: Nonsmall-cell-lung cancer cell lines; experiment: In vitro cytotoxicity, non-small-cell lung panel; type: cell-based; details: Homo sapiens, average of six to nine different cancer cell lines, 48 h, SRB, read-out: Log GI50 (concentration in mol/L causing 50% growth inhibition) (converted)
# Procedure: as §1, §2
# Breast cancer cell lines = experiment: In vitro cytotoxicity, breast panel; type: cell-based; details: Homo sapiens, average of six to nine different cancer cell lines, 48 h, SRB, read-out: Log GI50 (concentration in mol/L causing 50% growth inhibition) (converted)
# Procedure: as §1, §2
# [4] = tested on: Melanoma cancer cell lines; experiment: In vitro cytotoxicity, melanoma panel; type: cell-based; details: Homo sapiens, average of six to nine different cancer cell lines, 48 h, SRB, read-out: Log GI50 (concentration in mol/L causing 50% growth inhibition) (converted)
# Procedure: as §1, §2
# human tumour cell lines = experiment: In vitro anticancer activity against sixty human tumour cell lines (NCI, SRB assay); type: cell-based; details: for Log10LC50 mean graph midpoint (MG_MID): 50% cell death; for Log10LC50 mean graph midpoint (MG_MID) / Log10GI50 mean graph midpoint (MG_MID) / Log10TGI50 mean graph midpoint (MG_MID): 48 h continuous drug exposure, SRB assay; for Log10GI50 mean graph midpoint (MG_MID): 50% cell growth inhibition; for antiproliferative activity: against most of the tested cell lines; for Log10TGI50 mean graph midpoint (MG_MID): total cell growth inhibition
# Procedure: as §1, §2
# [5] = tested on: Prostate cancer cell lines; experiment: In vitro cytotoxicity, prostate panel; type: cell-based; details: Homo sapiens, average of six to nine different cancer cell lines, 48 h, SRB, read-out: Log GI50 (concentration in mol/L causing 50% growth inhibition) (converted)
# Procedure: as §1, §2
Compound,ΔTm (° C.) after incubation at 37° C. for 0 h (calf thymus (CT) DNA) [°C],ΔTm (° C.) after incubation at 37° C. for 18 h (calf thymus (CT) DNA) [°C],ΔTm (° C.) after incubation at 37° C. for 36 h (calf thymus (CT) DNA) [°C],"Course of ΔTm over incubation at 0 hr, 18 hr and 36 hr (calf thymus (CT) DNA)",GI50 [1] [µM],GI50 (CNS cancer cell lines) [µM],GI50 (Renal cancer cell lines) [µM],GI50 [2] [µM],GI50 (Colon cancer cell lines) [µM],GI50 [3] [µM],GI50 (Breast cancer cell lines) [µM],GI50 [4] [µM],Log10LC50 mean graph midpoint (MG_MID) (human tumour cell lines),Log10GI50 mean graph midpoint (MG_MID) (human tumour cell lines),"GI50 (human tumour cell lines; Homo sapiens, sixty cell lines in nine cell panels) [µM]",antiproliferative activity (human tumour cell lines),Log10TGI50 mean graph midpoint (MG_MID) (human tumour cell lines),GI50 [5] [µM]
"COc1cc(C(=O)N2CCN(c3ccccc3OC)CC2)c(N)cc1OCCCN1CCN(c2ccccc2OC)CC1 [Compound 11, (2-amino-5-methoxy-4-3-[4-(2-methoxyphenyl)piperazino]propoxyphenyl)[4-(2-methoxyphenyl)piperazino]methanone]",1.4,2.1,2.1,gradually increased,–,–,–,–,–,–,–,–,–,–,–,–,–,–
"COc1cc(C(=O)N2CCN(c3ccccc3OC)CC2)c(N)cc1OCc1ccccc1 [Compound 8a, [2-amino-4-(benzyloxy)-5-methoxyphenyl][4-(2-methoxyphenyl)piperazino]methanone]",1.2,1.7,2.2,gradually increased,5.75,5.89,5.62,5.5,8.51,3.63,3.39,4.47,−4.19,−5.47,< 20,nanomolar to low micromolar concentrations,−5.24,6.61
"COc1cc(C(=O)N2CCN(c3ncccn3)CC2)c(N)cc1OCc1ccccc1 [Compound 8c, [2-amino-4-(benzyloxy)-5-methoxyphenyl][4-(2-pyrimidinyl)piperazino]methanone]",1.4,1.6,2.3,gradually increased,5.75,5.89,5.62,5.5,3.39,7.24,6.76,1.78,−4.47,−5.47,–,nanomolar to low micromolar concentrations,−5.47,16.6
{2-amino-5-(methyloxy)-4[(phenylmethyl)oxy]phenyl}[4-({2-amino-5-(methyloxy)-4-[(phenylmethyl)oxy]phenyl}carbonyl)hexahydro-1-piperazinyl]methanone [Compound 8g],1.6,2.6,2.9,gradually increased,–,–,–,–,–,–,–,–,–,–,–,–,–,–
